Results reported in patent US20190381127A1, “COMBINATION THERAPY WITH A6, CHEMOTHERAPEUTIC AGENTS, RADIATION THERAPY, OR A COMBINATION THEREOF FOR THE TREATMENT OF CANCER” (Splash Pharmaceuticals, Inc., priority 2016, published 2019).
pIC50: −log10 of the molar value.

Assays:
[1] = system: endometrial cancer with metastases to lymph nodes and lungs; experiment: Compassionate use, endometrial cancer patient; assay type: in vivo, human
Description: A second compassionate use patient was administered A6. The patient was diagnosed with endometrial cancer with metastases to lymph nodes and lungs. The patient underwent a hysterectomy followed by cisplatin and paclitaxel regimen. The patient started A6 1.5 mg/kg/day and continued on this regimen for 2 years with intermittent radiation therapy to the mediastinum to a total dose of 5,000 cGy. […] A6 increased to 2.0 mg/kg/day.

[2] = system: human PC-3M-LN4 prostate cancer cells; experiment: Orthotopic prostate cancer metastasis model; assay type: in vivo, BALB/c (nu/nu) mice
Description: Prostate: A model of prostate cancer was used to evaluate the antimetastatic effect of A6 in mice. Metastases to lymph nodes were measured following the orthotopic injection of human PC-3M-LN4 prostate cancer cells into the prostates of BALB/c (nu/nu) mice.

[3] = human, in vivo
[4] = system: bovine retinal microvascular endothelial cells; experiment: Retinal endothelial cell VE-cadherin / MMP study; assay type: cell-based
[5] = system: HEY (DDP sensitive) cells; experiment: CCK-8 cytotoxicity of DDP/PTX with or without A6; assay type: cell-based; settings: 100 μM A6; 72 hours; 10% FBS
Description: Effect of A6 plus Cisplatin (DDP) or Paclitaxel (PTX) in HEY (DDP sensitive) and HEY/C2 (DDP resistant) cells was tested. The cells were plated in 96-well plates as described and incubated overnight. The cells were treating with various doses of DDP/PTX in the absence or presence of 100 μM A6 in culture medium containing 10% FBS and incubated for 72 hours. The CCK-8 assay described herein was performed to access cytotoxicity of DDP/PTX.

[6] = system: IGROV-1 cells; experiment: CCK-8 cytotoxicity, A6 plus DDP; assay type: cell-based, human; settings: A6 1, 10 or 100 μM 1 h, then 1 h A6 plus DDP
Description: Drugs: DDP (3.33 mM stock) and A6 (109.8 mM stock); Drug exposure time: 1 hour; Cell line: IGROV-1 and its DDP-resistant subline IGROV-1/CP; Media: RPMI 1640 plus 10% FBS containing 1 mM penicillin/streptomycin; Cytotoxicity Assays: CCK-8 (Cell Counting Kit 8—Dojindo Molecular Technologies).
Tissue culture plates containing 96-well plates were seeded with 4000 cells in 100 μl of media per well. The wells on rows A-D were seeded with IGROV-1 cells, while the wells on rows E-H were seeded with IGROV-1/CP cells. The cells were allowed to attach overnight in a 37° C. in 5% CO2 incubator. Approximately 24 h later medium was removed by aspiration and the cells were exposed to 0, 1, 10 or 100 μM A6 peptide in 100 μl. After 1 h, increasing concentrations of DDP were added to triplicate wells in 100 pa medium. Following a 1 h exposure to the combination of A6 and DDP, the drugs were removed by aspiration. The cells were then allowed to grow for 96 h following which the plates were assayed for relative cell growth with the CCK-8 assay.
CCK-8 assay. Five pi of CCK-8 stain was added to each well and the plate was incubated at 37° C. incubator for 4 h. The plate was read with a microplate reader at a wavelength of 450 nm.
The assay was performed using triplicate wells for each DDP concentration. […]

[7] = system: choroidal neovascularization; experiment: Laser-induced choroidal neovascularization (CNV); assay type: in vivo, primate; settings: intravitreal administration; relative to control
[8] = system: CD44-nonexpressing A278 cells; experiment: Cell binding to HA coated plates; assay type: cell-based
Excerpt: (§1) A6 shares sequence homology with the Link Module of CD44. […] This effect was blocked with the anti-CD44 antibody, IM7. […] Without being bound by any particular A6 can induce conformational changes in CD44, resulting in either a lowered affinity of the epitope for DF1485, or preventing DF1485 from binding CD44. The binding of A6 to CD44 results in a modulation of CD44-mediated intracellular signaling and establishes a functional relationship between A6 and CD44 in CD44 expressing cells.

[9] = system: ZAP-70pos B-cell lymphocytes isolated from individual patients; experiment: CLL xenograft model; assay type: in vivo, immune-deficient mice; settings: vs vehicle control
[10] = system: Mat B-111 syngeneic mammary carcinoma cells; experiment: Syngeneic mammary carcinoma model; parameters: species or system Fisher rats; settings: rat, in vivo
Description: Mammary: The effects of A6 in mammary tumor and metastasis models were investigated. […] The effect of A6 in Fisher rats inoculated with Mat B-111 syngeneic mammary carcinoma cells was evaluated.

[11] = system: IGROV-1/CP cells; experiment: CCK-8 cytotoxicity, A6 plus DDP; assay type: cell-based, human; settings: A6 1, 10 or 100 μM 1 h, then 1 h A6 plus DDP
Description: Study Conditions. Drugs: […] Drug exposure time: 1 hour; Cell line: IGROV-1 and its DDP-resistant subline IGROV-1/CP; Media: RPMI 1640 plus 10% FBS containing 1 mM penicillin/streptomycin; Cytotoxicity Assays: CCK-8 (Cell Counting Kit 8—Dojindo Molecular Technologies). Tissue culture plates containing 96-well plates were seeded with 4000 cells in 100 μl of media per well. The wells on rows A-D were seeded with IGROV-1 cells, while the wells on rows E-H were seeded with IGROV-1/CP cells. […] After 1 h, increasing concentrations of DDP were added to triplicate wells in […] medium. […] The cells were then allowed to grow for 96 h following which the plates were assayed for relative cell growth with the CCK-8 assay. CCK-8 assay. […] of CCK-8 stain was added to each well and the plate was incubated at 37° C. incubator for 4 h. The plate was read with a microplate reader at a wavelength of 450 nm. (See FIGS. 7A-7D and FIG. 8). The assay was performed using triplicate wells for each DDP concentration. The data in the tables below is the optical density in the well which is a function of the number of live cells remaining at the end of the 96 h growth period.

[12] = system: choroidal neovascularization; experiment: Laser-induced choroidal neovascularization (CNV); assay type: in vivo, mouse; settings: compared to the non-treated control group
[13] = system: A2780 cells; experiment: CCK-8 cytotoxicity, A6 plus DDP; assay type: cell-based, human; settings: A6 1, 10 or 100 μM 1 h, then 1 h A6 plus DDP; 10% FBS
Description: Study Conditions. Drugs: DDP (3.33 mM stock) and A6 (109.8 mM stock); Drug exposure time: 1 hour; Cell line: A2780 and its DDP-resistant subline A2780/CP; Media: RPMI 1640 plus 10% FBS containing 1 mM penicillin/streptomycin; Cytotoxicity Assays: CCK-8 (Cell Counting Kit 8—Dojindo Molecular Technologies).
Tissue culture plates containing 96-well plates were seeded with 4000 cells in 100 μl of media per well. The wells on rows A-D were seeded with A2780 cells, while the wells on rows E-H were seeded with A2780/CP cells. The cells were allowed to attach overnight in a 37° C. in 5% CO2 incubator. Approximately 24 h later medium was removed by aspiration and the cells were exposed to 0, 1, 10 or 100 μM A6 peptide in 100 μl. After 1 h, increasing concentrations of DDP were added to triplicate wells in 100 μl medium. Following a 1 h exposure to the combination of A6 and DDP, the drugs were removed by aspiration. The cells were then allowed to grow for 96 h following which the plates were assayed for relative cell growth with the CCK-8 assay.
CCK-8 assay. Five μl of CCK-8 stain was added to each well and the plate was incubated at 37° C. incubator for 4 h. The plate was read with a microplate reader at a wavelength of 450 nm.

[14] = system: persistent or recurrent epithelial ovarian, fallopian tube, or primary peritoneal carcinoma; experiment: Phase 2 trial, persistent or recurrent ovarian cancer
Description: Persistent or Recurrent Ovarian Cancer: A Phase 2 trial was conducted in patients with persistent or recurrent epithelial ovarian, fallopian tube, or primary peritoneal carcinoma to evaluate A6 in a patient population with a disease burden greater than that presented in the previously described MOR trial. Patients had received one prior platinum-based chemotherapeutic regimen and were allowed to have received one additional cytotoxic regimen for the management of recurrent or persistent disease. Patients received a 150 mg twice daily subcutaneous dose of A6 and continued on treatment until disease progression or unacceptable toxicity. Response criteria were as defined by RECIST. Primary measures of clinical efficacy were objective tumor response and PFS at 6 months compared to a historical Gynecologic Oncology Group (GOG) dataset based on a similar population of patients.

[15] = system: CD44-expressing SKOV3 cells; experiment: Cell binding to HA coated plates; assay type: cell-based, human
Excerpt: as §1

[16] = system: choroidal neovascularization; experiment: Laser-induced choroidal neovascularization (CNV); assay type: in vivo, rat; settings: subcutaneous injections; compared to non-treated controls
[17] = system: human breast and ovarian cancer cell lines; experiment: Boyden chamber chemotaxis; assay type: cell-based; settings: responsive cell lines; read-out: IC50 for the inhibition of chemotaxis
Excerpt: A6 had no effect on the migration of CD44-negative A2780 cells. A6 was also shown to interfere with the binding of only one (DF1485) of the four anti-CD44 antibodies tested.

[18] = system: retina of diabetic rats; experiment: Streptozotocin diabetic retinopathy model; parameters: species or system Brown Norway rats; settings: rat, in vivo
[19] = system: B16-F10 melanoma cells; experiment: B16-F10 lung metastatic model; assay type: in vivo, C57BL/6 mice; settings: tail vein injection; lungs evaluated at day 11
Description: Melanoma: The well characterized B16-F 10 lung metastatic model was employed to determine the ability of A6 to inhibit the colonization of secondary tissues by circulating cancer cells. […] Melanoma cells were injected into the tail veins of C57BL/6 mice to simulate a burden of metastasizing cells and the lungs were then evaluated for lesions at day 11.

[20] = system: human CLL B-cell lymphocytes; experiment: CLL B-cell lymphocytes in vitro
[21] = 150 mg twice daily subcutaneous

Ac-KPSSPPEE-NH2 [A6, Ac-KPSSPPEE-NH2]
clinical outcome ([1]; 10+ years of biannual testing): no evidence of disease
disease status ([1]; A6 1.5 mg/kg/day for 2 years with intermittent radiation therapy): Stable disease
CA-125 ([1]; after A6 dose reduced to 0.25-0.5 mg/kg/day, increased from 25): 71 U/ml
CA-125 ([1]; after A6 increased to 2.0 mg/kg/day): 22 U/ml
CA-125, subsequent follow up ([1]; subsequent follow up): below 25 U/ml
percentage of mice with lymph node metastases ([2]; more than 70% in the control group): ≥ 22%
reduction of lymph node volume ([2]; mouse, in vivo): ≤ 70%
half-life [3]: 1.8 to 2 h
MMP dependent VE-cadherin degradation and loss of permeability [4]: inhibit MMP dependent VE-cadherin degradation and the loss of permeability
secretion and activation of MMP-2 and MMP-9 [4]: prevented the secretion and activation
sensitivity of cells to cisplatin [5]: did not affect sensitivity
sensitivity of cells to paclitaxel [5]: did not affect sensitivity
modulation of sensitivity to DDP [6]: failed to modulate the sensitivity
reduction in CNV [7]: 71%
binding of cells to HA coated plates [8]: neither A6 nor IM7 had any effect
reduction in CLL burden [9]: up to 90%
lymph node metastasis [10]: markedly suppressed
modulation of sensitivity to DDP [11]: failed to modulate the sensitivity
inhibition of new vessel formation [12]: 95%
modulation of sensitivity to DDP [13]: failed to modulate the sensitivity
evaluable patients achieving stable disease [14, 21]: 36%
patients progression free for at least 6 months [14, 21]: 6.5%
objective tumor response ([14]; 150 mg twice daily subcutaneous, 31 eligible patients): no responses were observed
tolerability ([14]; in vivo): well tolerated
binding of cells to HA coated plates [15]: increase the binding
reduction in CNV [16]: 70%
pIC50 [17]: 7.00 to 8.00
increase in microvascular permeability in the retina [18]: inhibits the increase
loss of vascular endothelial (VE)-cadherin [18]: prevents the loss
number of lung metastases, % of control [19]: 50%
cytotoxicity in vitro [20]: direct, dose-dependent, cytotoxicity
expression of CD44 and ZAP-70 [20]: down modulates
